These results are taken from patent US9938324B2, “FRET-based reagents and methods for identifying anti-HIV compounds” (Cornell University, priority 2012, dated 2018).

The subject of test [1] is HIV-1 EnvNL4-3. Nature of the test: smFRET imaging of dually labelled HIV-1 Env on surface-immobilized virions (TIRF). The class given is biochemical, HIV-1NL4-3. The conditions noted are these: for agonist/antagonist character by smFRET (activation of HIV-1 Env): 100 μM, FIG. 10c, d; for effect of inhibitor on smFRET state distribution of HIV-1 Env: tested at concentrations 10-100-fold above the Kd (100 μM), FIG. 10. The method, then:
All HIV-1 virions were generated by transfection of pNL4-3-based plasmids in HEK293T cells. Virus was harvested 24 h post-transfection and concentrated by centrifugation. Dually tagged viruses were site-specifically labelled at each peptide insert simultaneously through incubation with appropriate fluorophore conjugates and labelling enzymes. The viruses were purified away from unbound dye by density-gradient ultracentrifugation. Viruses were immobilized on streptavidin-coated quartz microscope slides, and imaged with a lab-built prism-based TIRF microscope equipped with multiple laser. Donor and acceptor fluorescence were separated with a dichroic filter, and imaged on parallel EMCCD cameras. All analysis was carried out with custom-designed Matlab software.
The tagged Envs (V1-3-Q3/V4-2-A1 and V1-3-A1/V4-2-A1) were subcloned from pNL4-3 into a pNL4-3 construct lacking reverse transcriptase (pNL4-3 ΔRT). Virus for smFRET experiments was generated by co-transfecting HEK293T cells with tagged-Env-containing pNL4-3 ΔRT and a 40-fold excess of wild-type-Env containing pNL4-3 ΔRT. Virus was harvested 24 h post-transfection and concentrated by centrifugation over a 15% sucrose cushion.
All virus labelling reactions were carried out in buffer containing 50 mM HEPES pH7.5, 10 mM MgCl2, 10 mM CaCl2. Virus containing the V1-3-Q3 and V4-2-A1 peptide insertions was labelled by incubation with 0.5 μM AlexaFluor647-cadaverine (Invitrogen), 0.5 μM Cy3-coenzyme A (Cy3-CoA), 0.65 μM transglutaminase (Sigma) (Lin et al., J Am Chem Soc 128, no. 14 (2006): 4542-3), and 5 μM AcpS (Zhou et al., ACS Chem Biol 2, no. 5 (2007): 337-46) for 2 h at 37° C. Alternatively, virus containing the V1-3-A1 and V4-2-A1 peptide insertions was labelled by incubation with 0.5 μM Cy5-CoA, 0.5 μM Cy3-CoA, and 5 μM AcpS for 2 h at 37° C. […]
Fluorescently labelled virus, containing DSPE-PEG2,000-biotin in the viral membrane was immobilized on passivated streptavidin-coated quartz microscope slides and imaged on a lab-built prism-based TIRF microscope. […] Donor and acceptor fluorescence were collected through a high-NA objective, separated with a 650DCXR dichroic filter (Chroma), and imaged on two parallel EMCCD cameras (Photometrics). Movies of surface-immobilized viruses were recorded at 25 frames/s for 40 s at room temperature. […]
All processing and analysis of fluorescence and smFRET trajectories was carried out using custom-designed Matlab (Mathworks) software. Fluorescence trajectories were extracted from the recorded movies and used to calculate FRET efficiency according to FRET=ICy5/(ICy3+ICy5), where ICy5 and ICy3 are the intensities of Cy5 and Cy3 fluorescence, respectively. […]

In test [2] the target is HIV-1 Env (Human immunodeficiency virus type 1 group M subtype B, UniProt P03375). Conditions: cited from earlier work.
HIV-1 Env, sequence (P03375 33-856): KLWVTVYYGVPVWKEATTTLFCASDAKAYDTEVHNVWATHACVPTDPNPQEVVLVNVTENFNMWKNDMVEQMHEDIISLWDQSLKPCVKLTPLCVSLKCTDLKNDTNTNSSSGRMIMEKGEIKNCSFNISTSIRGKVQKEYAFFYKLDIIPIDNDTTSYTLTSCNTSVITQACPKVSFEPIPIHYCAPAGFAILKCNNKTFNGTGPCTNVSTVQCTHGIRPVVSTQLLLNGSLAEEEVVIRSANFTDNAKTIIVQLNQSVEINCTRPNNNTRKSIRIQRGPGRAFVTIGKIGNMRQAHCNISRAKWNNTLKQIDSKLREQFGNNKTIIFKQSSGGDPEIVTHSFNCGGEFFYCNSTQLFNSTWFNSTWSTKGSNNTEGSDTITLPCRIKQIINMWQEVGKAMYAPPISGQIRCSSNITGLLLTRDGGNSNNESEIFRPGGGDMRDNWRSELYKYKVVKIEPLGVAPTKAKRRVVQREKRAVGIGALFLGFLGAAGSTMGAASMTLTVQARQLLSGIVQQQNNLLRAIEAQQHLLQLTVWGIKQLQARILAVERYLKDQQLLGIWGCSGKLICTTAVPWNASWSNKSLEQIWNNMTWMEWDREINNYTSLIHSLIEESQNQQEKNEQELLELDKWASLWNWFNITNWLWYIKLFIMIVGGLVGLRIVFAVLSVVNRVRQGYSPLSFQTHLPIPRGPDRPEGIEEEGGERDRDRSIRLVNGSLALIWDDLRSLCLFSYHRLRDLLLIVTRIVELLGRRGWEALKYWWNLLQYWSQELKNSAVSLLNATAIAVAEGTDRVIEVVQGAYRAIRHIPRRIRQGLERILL

For the molecule `CC1(C)CC(NC(=O)C(=O)Nc2ccc(Cl)c(F)c2)CC(C)(C)N1` [JRC-II-191], in test [1], the “agonist/antagonist character by smFRET (activation of HIV-1 Env)” value was “clear agonists” and the “effect of inhibitor on smFRET state distribution of HIV-1 Env” value is on record as “induced an intermediate-FRET state”. Moreover, the “inactivation of HIV-1 Env” value in test [2] is on record as “inactivate”.

As for `CC1(C)CC(NC(=O)C(=O)Nc2ccc(Cl)cc2)CC(C)(C)N1` [NBD-556], in test [1], the “agonist/antagonist character by smFRET (activation of HIV-1 Env)” value is “clear agonists” and the “effect of inhibitor on smFRET state distribution of HIV-1 Env” value is listed as “induced an intermediate-FRET state”.
